Data published in paper PMC4511477 (Biochemistry, 2015).
Changes are numbered by the printed parent chain. In names and notes the source's numbering stands.

T1: GltPh (Pyrococcus horikoshii, UniProt O59010)
T1 sequence (O59010 1-417 limits assumed): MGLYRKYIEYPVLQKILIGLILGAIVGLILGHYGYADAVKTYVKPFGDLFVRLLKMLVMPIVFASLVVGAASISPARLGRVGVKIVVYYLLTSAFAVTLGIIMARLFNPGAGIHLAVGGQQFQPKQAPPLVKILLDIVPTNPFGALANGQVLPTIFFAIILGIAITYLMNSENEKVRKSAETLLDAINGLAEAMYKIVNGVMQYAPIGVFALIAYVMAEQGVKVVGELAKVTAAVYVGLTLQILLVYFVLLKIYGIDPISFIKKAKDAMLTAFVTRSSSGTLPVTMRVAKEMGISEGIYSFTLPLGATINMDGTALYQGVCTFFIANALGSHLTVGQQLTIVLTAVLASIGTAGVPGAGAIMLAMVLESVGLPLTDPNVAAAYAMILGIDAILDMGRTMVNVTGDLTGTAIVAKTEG

T2: semisynthetic GltPh (Pyrococcus horikoshii, UniProt O59010, M385C)
T2 sequence (O59010 1-417 M385C limits assumed): T1 sequence (O59010 1-417 limits assumed) with M385C

B1: semisynthetic GltPh transporter (wild type sequence, M385C at the ligation site) (natural protein, Pyrococcus horikoshii)
chain: MGLYRKYIEYPVLQKILIGLILGAIVGLILGHYGYADAVKTYVKPFGDLFVRLLKMLVMPIVFASLVVGAASISPARLGRVGVKIVVYYLLTSAFAVTLGIIMARLFNPGAGIHLAVGGQQFQPKQAPPLVKILLDIVPTNPFGALANGQVLPTIFFAIILGIAITYLMNSENEKVRKSAETLLDAINGLAEAMYKIVNGVMQYAPIGVFALIAYVMAEQGVKVVGELAKVTAAVYVGLTLQILLVYFVLLKIYGIDPISFIKKAKDAMLTAFVTRSSSGTLPVTMRVAKEMGISEGIYSFTLPLGATINMDGTALYQGVCTFFIANALGSHLTVGQQLTIVLTAVLASIGTAGVPGAGAIMLAMVLESVGLPLTDPNVAAAYACILGIDAILDMGRTMVNVTGDLTGTAIVAKTEGTGSG

Tests used:
GltPh = target: T1, GltPh; experiment: […]-Asp uptake into proteoliposomes; format: biochemical; conditions: read-out: % inhibition at 10 μM
semisynthetic GltPh = target: T2, semisynthetic GltPh; experiment: […]-Asp uptake into proteoliposomes; format: biochemical; conditions: read-out: % inhibition at 10 μM
cross-linking = target: the molecule itself; experiment: cross-linking

Molecule | inhibition at 10 µM (GltPh) [%] | inhibition at 10 µM (semisynthetic GltPh) [%] | stoichiometry N (cross-linking)
NC(C(=O)O)C(OCc1ccccc1)C(=O)O (racemic) [TBOA] | 31 ± 10 | 42 ± 4 | –
B1 | – | – | 3
